In patent US20260265798A1, “Enzymes and Uses in Biocatalytic Halogenation of N-Heteroaryls Thereof” (Agency for Science, Technology and Research, priority 2022, published 2026):
Marks after values point to notes of the source that are not given here.

Experiments:
NT-11 PrnC = molecular target: T1, NT-11 PrnC (Pseudomonas fluorescens, UniProt P95482); experiment: NT-11 PrnC-catalyzed halogenation, analytical scale biotransformation (in-vitro regioselective chlorination, substrate scope); type: biochemical; conditions: in-vitro chlorination by PrnC under optimized conditions; substrate 0.5 mM, MgCl2 10 mM, overnight 30° C.; HPLC
T1 construct: made in house; host or cells: T7 Express E. coli (NEB), pET-28a(+)
T1 sequence (P95482 with tags, fused parts or gaps): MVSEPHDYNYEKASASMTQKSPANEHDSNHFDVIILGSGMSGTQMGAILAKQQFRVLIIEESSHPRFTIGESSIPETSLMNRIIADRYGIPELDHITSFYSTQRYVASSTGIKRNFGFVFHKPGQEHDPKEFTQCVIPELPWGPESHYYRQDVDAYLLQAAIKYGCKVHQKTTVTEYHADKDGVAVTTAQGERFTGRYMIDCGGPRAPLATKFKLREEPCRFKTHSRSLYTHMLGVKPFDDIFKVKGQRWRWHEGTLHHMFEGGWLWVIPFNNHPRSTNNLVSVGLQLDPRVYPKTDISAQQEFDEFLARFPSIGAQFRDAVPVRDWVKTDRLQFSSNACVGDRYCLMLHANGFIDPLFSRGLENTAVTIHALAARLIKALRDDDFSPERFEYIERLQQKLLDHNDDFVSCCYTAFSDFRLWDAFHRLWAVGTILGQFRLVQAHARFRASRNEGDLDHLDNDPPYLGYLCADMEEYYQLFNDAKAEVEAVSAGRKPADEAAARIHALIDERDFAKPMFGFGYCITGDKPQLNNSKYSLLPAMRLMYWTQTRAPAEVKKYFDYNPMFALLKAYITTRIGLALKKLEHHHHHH
Experimental: NT-11 PrnC-Catalyzed halogenation. In a solution containing the pyrrolic derivative starting material (0.5 mM), MgCl2/MgBr2 (10 mM), glucose (5.0 mM), FAD ([…]), NT-11 PrnC (12.5 μM), Fre ([…]) and Gdhi (2.5 μM) in 10 mM potassium phosphate buffer, NADH (2.5 mM) was added to a total volume of 200 μL. After an overnight incubation of 30° C. and orbital shaking at 350 rpm, reactions were quenched with an equivalent volume of MeOH, pelleted by centrifugation (15000 rpm for 10 min) and the supernatant analyzed by HPLC-MS using the analytical HPLC method.
Analytical HPLC Method. 10 μL of the supernatant injected onto SecurityGuard™ column (KJ0-4282) with a (4.0 mm×3.0 mm) guard cartridge before separation using a Phenomenex Gemini® C18 analytical column (5 μm packing, 150 mm×4.6 mm). Gradient starting conditions of 5% MeCN/H2O (+0.1% Formic acid) were held for 1 min before development into 50% MeCN/H2O over 3 min, followed by development into 95% MeCN/H2O over 3 min. 95% MeCN/H2O was held for 1 min before equilibration back to starting conditions over 1 min. Starting conditions was held for 1 min followed by another 2 min post-run. Flow rates were kept constant at 1 mL/min. Column temperature was kept constant at 30° C. UV absorbance was detected at 220 nm, 254 nm and 210 nm throughout the run.
A substrate scope of the enzyme by the application of the Prnc enzyme on a list of structural diverse pyrrolic substrates is determined. An optimized co-factors regeneration protocol was used to regulate the generation of the activated halogen which is captured by the Prnc enzyme into the active site for the bioconversion. Reaction is conducted at ambient temperature of 30° C., in an aqueous non-toxic buffer solution with an environmentally friendly chloride source.

PrnC = molecular target: T2, PrnC (Pseudomonas fluorescens, UniProt P95482); experiment: Optimization study of PrnC biocatalyst enzymatic assay conditions on the native substrate 1; type: biochemical
T2 construct: made in house; host or cells: T7 Express E. coli (NEB), pET-28a(+)
T2 sequence (P95482 with tags, fused parts or gaps): T1 sequence (P95482 with tags, fused parts or gaps)
Experimental: The conditions in the table above would be referred to as the standard conditions of the present invention; i.e. flavin-dependent halogenase (4 mol %), flavin adenine dinucleotide (FAD) (0.2 mol %), E. coli flavin reductase (Fre) (0.5 mol %), nicotinamide adenine dinucleotide hydrogen (NADH) (5.0 equiv), glucose 1-dehydrogenase (GdHi) (0.5 mol %), monosaccharide (10.0 equiv), halogen (20.0 equiv), buffer (10 mM, pH 7.4).
With the purified biocatalyst PrnC enzyme in hand, a preliminary optimization study of the enzymatic assay conditions was performed on the native substrate monodechloroaminopyrrolnitrin (1). The enzyme assays were carried out for 18 h with orbital shaking at 300 rpm and a temperature of 30° C. In addition to the substrate and PrnC, the reaction mixture contained FAD (0.1 equivalents relative to PrnC), NADH and E. coli flavin reductase (Fre), needed to generate FADH2 for the halogenation reaction. In initial assays, even using a super stoichiometric amount of NADH (5.0 equiv) (entry 1) only yielded 18% conversion to the desired product.

## Nc1c(Cl)cccc1-c1c[nH]cc1Cl [compound 2, 2-chloro-6-(4-chloro-1H-pyrrol-3-yl)aniline]
NT-11 PrnC
  conversion yield: 55%
PrnC; entry 1: 2 mol% FAD (10x), no GdHi & glucose, 18 h, 30° C.
  conversion of 2 (%): 18%
PrnC; entry 2: 2 mol% FAD (10x), GdHi regen
  conversion of 2 (%): 16%
PrnC; entry 4: 1 mol% of Fre (2x)
  conversion of 2 (%): 72%
PrnC; entry 5: 0.05 Equiv NADH (Less 100x)
  conversion of 2 (%): 32%
PrnC; entry 6: 0.05 Equiv NADH (Less 100x) + 8 mol% PrnC (2x)
  conversion of 2 (%): 53%
PrnC; entry 7: 0.05 Equiv NADH (Less 100x) in Tris HCl buffer
  conversion of 2 (%): 49%
PrnC; standard conditions: PrnC 4 mol%, GdHi 0.5 mol%, FAD 0.2 mol%, Fre 0.5 mol%, NADH 5.0 equiv, glucose 10.0 equiv, MgCl2 20.0 equiv, phosphate buffer 10 mM pH 7.4
  conversion of 2 (%): 91^b %

## CC(=O)Nc1ccccc1-c1c[nH]cc1Cl [compound 3, N-(2-(4-chloro-1H-pyrrol-3-yl)phenyl)acetamide]
NT-11 PrnC
  conversion yield: 18%

## Cc1ccccc1-c1c[nH]cc1Cl [compound 5, 3-chloro-4-(o-tolyl)-1H-pyrrole]
NT-11 PrnC
  conversion yield: 22%

## COc1ccccc1-c1c[nH]cc1Cl [compound 6, 3-chloro-4-(2-methoxyphenyl)-1H-pyrrole]
NT-11 PrnC
  conversion yield: 41%

## Oc1ccccc1-c1c[nH]cc1Cl [compound 7, 2-(4-chloro-1H-pyrrol-3-yl)phenol]
NT-11 PrnC
  conversion yield: 21%

## Clc1c[nH]cc1-c1ccccc1 [compound 8, 3-chloro-4-phenyl-1H-pyrrole]
NT-11 PrnC
  conversion yield: 77%

## Clc1c[nH]cc1-c1cccnc1 [compound 9, 3-(4-chloro-1H-pyrrol-3-yl)pyridine]
NT-11 PrnC
  conversion yield: 73%

## Nc1ccccc1-c1cc(Cl)c[nH]1 [compound 11, 2-(4-chloro-1H-pyrrol-2-yl)aniline]
NT-11 PrnC
  conversion yield: 68%

## Nc1c(Cl)cccc1-c1[nH]ncc1Cl [compound 12, 2-chloro-6-(4-chloro-1H-pyrazol-5-yl)aniline]
NT-11 PrnC
  conversion yield: 14%

## Clc1c[nH]cc1-c1cnc2ccccc2c1 [compound 14, 3-(4-chloro-1H-pyrrol-3-yl) quinoline]
NT-11 PrnC
  conversion yield: 63%
